No end group written: not given here. Acr = acridine on the lysine ε-amine; PEG = not defined here
Columns and labels:
[1] = test system: DC-SIGN (+) and (−) CHO cells; test: in vitro transfection with glycopeptide DNA polyplexes; type: cell-based, human; conditions: luciferase, 24 hrs
Protocol: DC-SIGN (+) CHO cells (1×10^5) were plated in 6-well plates in triplicate in 1 ml DMEM high glucose supplemented with 7% FBS and 1% MEM non-essential amino acids. After incubation for 24 hrs at 37° C. in 5% CO2, the media was removed, the cells were washed with 1 ml DPBS, replaced with 1 ml DMEM high glucose media supplemented with 2% FBS and 0.3% MEM non-essential amino acids.
Cells were transfected in triplicate for 24 hrs with pGL3 polyplexes (1 μg DNA and 0.6 nmol of glycopeptide in a total volume of 30 μl). The efficiency of glycopeptide DNA polyplex transfection was compared with PEI-DNA transfection performed by combining 1 μg DNA with 1.2 μg of PEI (N:P of 9) in 100 μl of 5 mM Hepes, 270 mM mannitol, pH 7.4. After 24 hrs, cells were washed with 2 ml of DPBS and lysed with 0.5 ml of lysis buffer (25 mM tris chloride, 1 mM EDTA, 8 mM magnesium chloride, 1% Triton X-100, pH 7.8) for 10 min at 4° C. […] The relative light units were determined with 10 sec integration after automatic injection of 100 μl of 0.43 mM D-luciferin. Protein concentrations were measured by a BCA assay with bovine serum albumin as a standard (Smith, P. K., Krohn, R. I., Hermanson, G. T., Mallia, A. K., Gartner, F. H., Provenzano, M. D., Fujimoto, E. K., Goeke, N. M., Olson, B. J., and Klenk, D. C. (1985) Measurement of protein using bicinchoninic acid. Anal Biochem 150, 76-85). […]

plasmid = test: DNA band shift assay of Man9-(Acr-Lys)6; type: binding
Text: (§1) We tested Man9-N-glycan polyacridine peptides as a DNA vaccine adjuvant for use in combination with an intramuscular electroporation apparatus. […] The Man9-(Acr-Lys)6 (SEQ ID NO: 42) that we used for this study has the following structure of In certain embodiments the compound is Formula IVb: […]

Mice = test: IM-EP of Man9-(Acr-Lys)6 DNA in mice; type: in vivo; conditions: intramuscular electroporation, 1 μg DNA
Protocol: as §1
The inventors obtained mouse data illustrating the electroporation apparatus expression of Man9-(Acr-Lys)6 (SEQ ID NO: 42) DNA (1 μg) at 0 and 0.012 nmoles of Man9-(Acr-Lys)6 (SEQ ID NO: 42) per μg of DNA (FIG. 32). The luciferase gene expression was equivalent at 0, 0.003 and 0.006 nmols of Man9 per μg of DNA, and then decreased at 0.0125 nmols of Man9 and higher. 0.0125 nmols of Man9-(Acr-Lys)6 (SEQ ID NO: 42) per μg of DNA corresponds 40 copies of Man9 per plasmid.

liver = test: hydrodynamic stimulation and bioluminescence imaging of luciferase expression; type: in vivo, mice; conditions: 1 μg pGL3 dose, HD stimulation after 30 min, 24 hrs
Protocol: pGL3 (1 μg) was prepared in a volume of normal saline corresponding to 9 wt/vol % of the mouse's body weight (1.8-2.25 ml based on 20-25 g mice). The DNA dose was administered by tail vein to 4-5 mice in 5 sec according to a published procedure (Liu F, Song Y, Liu D. Hydrodynamics-based transfection in animals by systemic administration of plasmid DNA. Gene Ther 1999; 6: 1258-1266; Zhang G, Budker V, Wolff J A. High levels of foreign gene expression in hepatocytes after tail vein injections of naked plasmid DNA. Human Gene Therapy 1999; 10: 1735-1737). Mice (4-5) were also dosed tail vein with 1 μg of PEGylated polyacridine polyplex in 50 μl of HBM (5 mM Hepes, 0.27 M mannitol, pH 7.4). At times ranging from 5-120 min, a stimulatory hydrodynamic dose of normal saline (9 wt/vol % of the body weight) was administered over 5 sec. At 24 hrs post-DNA dose, mice were anesthetized by 3% isofluorane, then administered an i.p. dose of 80 μl (2.4 mg) of D-luciferin (30 μg/μl in phosphate-buffered saline). At 5 min following the D-luciferin dose, mice were imaged for bioluminescence (BLI) on an IVIS Imaging 200 Series (Xenogen). BLI was performed in a light-tight chamber on a temperature-controlled, adjustable stage while isofluorane was administered by a gas manifold at a flow rate of 3%. Images were acquired at a ‘medium’ binning level and a 20 cm field of view. Acquisition times were varied (1 sec^−1 min) depending on the intensity of the luminescence. The Xenogen system reported bioluminescence as photons/sec/cm^2/seradian in a 2.86 cm diameter region of interest covering the liver. The integration area was transformed to pmols of luciferase in the liver using a previously reported standard curve (Rettig G et al. Quantitative Bioluminscence Imaging of Transgene Expression In Vivo. Analytical Biochemistry 2006; 335: 90-94). The results were determined to be statistically significant (p≦0.05) based on a two-tailed unpaired t-test.

[2] = following i.v. dosing; Collard et al. 2000; cited from earlier work

Substance: Cys-(Acr-Lys)4: DNA binding polyacridine peptide with N-terminal Cys, prepared with Fmoc-Lys(Acr); SEQ ID NO: 23
- selectivity of gene transfer for CHO (+) or (−) cells [1]: did not demonstrate selectivity

Substance: Man9-(Acr-Lys)6: Iodoacetamide Man9 N-glycan reacted with Cys(Acr-Lys)6; Formula IVb (K(Acr)KK(Acr)KK(Acr)KK(Acr)KK(Acr)KK(Acr)K; not fully specified (N-terminus); also: Man9 N-glycan attached via iodoacetamide to a Cys not shown in chain)
- copies bound to plasmid (plasmid): up to 40 copies
- luciferase gene expression at 0, 0.003 and 0.006 nmols of Man9 per μg of DNA (Mice): equivalent
- luciferase gene expression at 0.0125 nmols of Man9 and higher (Mice): decreased

Substance: PEG-Cys-Trp-Lys18: PEGylated polylysine peptide control, SEQ ID NO: 34 (C(PEG)WKKKKKKKKKKKKKKKKKK; reading uncertain)
- stimulated luciferase expression of controls (liver): failed to produce measurable expression
- stimulated luciferase expression of controls (liver; listed as PEGylated-Cys-Trp-Lys18): no detectable luciferase expression
- complete metabolism of plasmid DNA in the circulation [2]: ≤ 3 min

From patent US20120035320A1, “POLYACRIDINE NUCLEIC ACID DELIVERY PEPTIDE COMPLEXES” (University of Iowa Research Foundation, priority 2010, published 2012)
